Structures are written as SMILES.

For orientation: IC50 means the concentration at which inhibition is half-maximal.

Assay [1] concerns HCT116 MTAP null cells. In words: HCT116 MTAP null cell line proliferation / cell viability (CellTiter-Glo, 6 days). In kind it is cell-based. The settings on record: 144 h; HCT116 MTAP null cells, 6 days treatment, CellTiter-Glo cell viability; read-out: HCT-116 MTAP null IC50. The procedure:
(§1) HCT116 Proliferation Activity
(§2) To assess selective anti-proliferative activity of compounds of the invention in cells that have loss expression of MTAP, an HCT-116 isogenic cell line pair was utilized where one cell line was engineered to genetically knockout both MTAP alleles. Cell viability was then assessed in both the parent HCT-116 cell line and the MTAP null cell line after 6 days of treatment with compounds of the present invention. Selective anti-proliferative activity in the MTAP null cell line indicates MTA-cooperative inhibition of PRMT5 and ability to inhibit growth of cancer cells that have loss of MTAP.
(§3) HCT116 MTAP null and WT cells were seeded in 96-well tissue culture plates in RPMI 1640 media+10% fetal bovine serum. Plates were incubated overnight at 37° C. and 5% CO2. Cells were then treated with an 8- or 9-point serial dilution of compound, using a top concentration of 1, or 10 μM, 1:3 serial dilution steps and, a DMSO-only control. Cells were incubated in the presence of drug for 6 days. Effects on cell viability were measured with the CellTiter-Glo® Luminescent Cell Viability Assay (Promega) per manufacturer's recommendation. Assay plates were read on an EnVision™ Multilabel Reader using the Ultra-Sensitive luminescence module. IC50 values were calculated with GraphPad Prism v 5.01 using symmetrical sigmoidal dose-response least squares fit with Hill slope fixed to −1 and top constrain to 100% or GeneData Screener using a 4-parameter logistic model to fit dose response curves.
(§4) Alternatively, compounds could be assayed with a 384 well plate format:
(§5) Compounds were pre-spotted into 384 well plates with a 22-point serial dilution of compound, using a top concentration of 10 or 50 μM, 1:2 serial dilution steps and, a DMSO-only control. HCT116 MTAP null and WT cells were then seeded as above and after 6 days effects on cell viability were measured with the CellTiter-Glo® Luminescent Cell Viability Assay (Promega). Assay plates were read as above and IC50 values were calculated with GeneData Screener using a 4-parameter logistic model to fit dose response curves. The reported IC50 represents the value where the curve transits 50% of control.
(In general: Cellular ATP, detected with luciferase, serves as a proxy for viable cell number.)

Assay [2] concerns HCT116 WT cells. In words: HCT116 WT (parent) cell line proliferation / cell viability (CellTiter-Glo, 6 days). In kind it is cell-based. The settings on record: Homo sapiens, HCT-116, 144 h, 6 days treatment. The procedure: as §1, §2, §3, §4, §5

Regarding `C[C@@H]1OCc2c(N)nc3ccc(C(=O)N(C)C4COc5cc(C(F)(F)F)ccc54)cc3c21` (mixture of isomers) [Example 205, (1R)-4-amino-N,1-dimethyl-N-((3S)-6-(trifluoromethyl)-2,3-dihydro-1-benzofuran-3-yl)-1,3-dihydrofuro[3,4-c]quinoline-8-carboxamide and (1S)-4-amino-N,1-dimethyl-N-((3S)-6-(trifluoromethyl)-2,3-dihydro-1-benzofuran-3-yl)-1,3-dihydrofuro[3,4-c]quinoline-8-carboxamide], the IC50 in assay [1] was 360 nM; in assay [2], 12300 nM.
For `CN=S(C)(=O)c1ccc2c(c1)OC[C@H]2N(C)C(=O)c1ccc2nc(N)c3c(c2c1)COC3` (mixture of isomers) [Example 447, 4-amino-N-((3S)-6-((R)-N,S-dimethylsulfonimidoyl)-2,3-dihydro-1-benzofuran-3-yl)-N-methyl-1,3-dihydrofuro[3,4-c]quinoline-8-carboxamide and 4-amino-N-((3S)-6-((S)-N,S-dimethylsulfonimidoyl)-2,3-dihydro-1-benzofuran-3-yl)-N-methyl-1,3-dihydrofuro[3,4-c]quinoline-8-carboxamide] the same measures were 724 nM and 24900 nM.
For `CN=S(C)(=O)c1ccc2c(c1)OC[C@H]2N(C)C(=O)c1cc2c3c(c(N)nc2cn1)COC3` (mixture of isomers) [Example 456, 4-amino-N-((3S)-6-((R)-N,S-dimethylsulfonimidoyl)-2,3-dihydro-1-benzofuran-3-yl)-N-methyl-1,3-dihydrofuro[3,4-c][1,7]naphthyridine-8-carboxamide and 4-amino-N-((3S)-6-((S)-N,S-dimethylsulfonimidoyl)-2,3-dihydro-1-benzofuran-3-yl)-N-methyl-1,3-dihydrofuro[3,4-c][1,7]naphthyridine-8-carboxamide], the IC50 in assay [1] was 842 nM; in assay [2], 24100 nM.
For `CN(C(=O)c1cc2c3c(c(N)nc2cc1F)COC3)[C@@H]1COc2cc(C(F)(F)F)cnc21` (mixture of isomers) [Example 461, 4-amino-7-fluoro-N-methyl-N-((3R)-6-(trifluoromethyl)-2,3-dihydrofuro[3,2-b]pyridin-3-yl)-1,3-dihydrofuro[3,4-c]quinoline-8-carboxamide and 4-amino-7-fluoro-N-methyl-N-((3S)-6-(trifluoromethyl)-2,3-dihydrofuro[3,2-b]pyridin-3-yl)-1,3-dihydrofuro[3,4-c]quinoline-8-carboxamide] the same measures were 871 nM and 38300 nM.
For `CN=S(C)(=O)c1ccc2c(c1)OC[C@H]2N(C)C(=O)c1cc2c3c(c(N)nc2cc1F)COC3` (mixture of isomers) [Example 463, 4-amino-N-((3S)-6-((R)-N,S-dimethylsulfonimidoyl)-2,3-dihydro-1-benzofuran-3-yl)-7-fluoro-N-methyl-1,3-dihydrofuro[3,4-c]quinoline-8-carboxamide and 4-amino-N-((3S)-6-((S)-N,S-dimethylsulfonimidoyl)-2,3-dihydro-1-benzofuran-3-yl)-7-fluoro-N-methyl-1,3-dihydrofuro[3,4-c]quinoline-8-carboxamide], in that order: 134 nM and 14700 nM.
For `CN(C(=O)c1ccc2nc(N)c3c(c2c1)COC3)C1COc2cc(C#N)ccc21` (racemic) [Example 201, 4-amino-N-((3R)-6-cyano-2,3-dihydro-1-benzofuran-3-yl)-N-methyl-1,3-dihydrofuro[3,4-c]quinoline-8-carboxamide and 4-amino-N-((3S)-6-cyano-2,3-dihydro-1-benzofuran-3-yl)-N-methyl-1,3-dihydrofuro[3,4-c]quinoline-8-carboxamide], in that order: 149 nM and 5820 nM.
As to `CN(C(=O)c1ccc2nc(N)c3c(c2c1)COC3)C1COc2cc(Br)ccc21` (racemic) [Example 203, 4-amino-N-((3R)-6-bromo-2,3-dihydro-1-benzofuran-3-yl)-N-methyl-1,3-dihydrofuro[3,4-c]quinoline-8-carboxamide and 4-amino-N-((3S)-6-bromo-2,3-dihydro-1-benzofuran-3-yl)-N-methyl-1,3-dihydrofuro[3,4-c]quinoline-8-carboxamide], the values for the IC50 in assay [1] and in assay [2] were 93 nM and 4590 nM, respectively.
For `N#CCN(C(=O)c1cc2c3c(c(N)nc2cn1)COC3)C1COc2cc(C(F)(F)F)ccc21` (racemic) [Example 208, 4-amino-N-(cyanomethyl)-N-((3R)-6-(trifluoromethyl)-2,3-dihydro-1-benzofuran-3-yl)-1,3-dihydrofuro[3,4-c][1,7]-naphthyridine-8-carboxamide and 4-amino-N-(cyanomethyl)-N-((3S)-6-(trifluoromethyl)-2,3-dihydro-1-benzofuran-3-yl)-1,3-dihydrofuro[3,4-c][1,7]-naphthyridine-8-carboxamide], in that order: 553 nM and 16600 nM.
For `CN(C(=O)c1cc2c3c(c(N)nc2cc1F)COC3)C1c2ccc(C(F)(F)F)nc2CC1(C)C` (racemic) [Example 213, 4-amino-N-((5R)-6,6-dimethyl-2-(trifluoromethyl)-6,7-dihydro-5H-cyclopenta[b]-pyridin-5-yl)-7-fluoro-N-methyl-1,3-dihydrofuro[3,4-c]-quinoline-8-carboxamide and 4-amino-N-((5S)-6,6-dimethyl-2-(trifluoromethyl)-6,7-dihydro-5H-cyclopenta[b]-pyridin-5-yl)-7-fluoro-N-methyl-1,3-dihydrofuro[3,4-c]-quinoline-8-carboxamide], in that order: 365 nM and 12900 nM.
For `CN(C(=O)c1cc2c3c(c(N)nc2cc1F)COC3)C1c2ccc(C(F)(F)F)nc2CC1(F)F` (racemic) [Example 215, 4-amino-N-((5R)-6,6-difluoro-2-(trifluoromethyl)-6,7-dihydro-5H-cyclopenta[b]-pyridin-5-yl)-7-fluoro-N-methyl-1,3-dihydrofuro[3,4-c]-quinoline-8-carboxamide and 4-amino-N-((5S)-6,6-difluoro-2-(trifluoromethyl)-6,7-dihydro-5H-cyclopenta[b]pyridin-5-yl)-7-fluoro-N-methyl-1,3-dihydro-furo[3,4-c] quinoline-8-carboxamide] the same measures were 427 nM and 15000 nM.
Take `CN(C(=O)c1ccc2nc(N)c3cnn(C)c3c2c1)C1COc2ncc(C(F)(F)F)cc21` (racemic) [Example 226, 4-amino-N,1-dimethyl-N-((3R)-5-(trifluoromethyl)-2,3-dihydrofuro[2,3-b]pyridin-3-yl)-1H-pyrazolo[4,3-c]quinoline-8-carboxamide and 4-amino-N,1-dimethyl-N-((3S)-5-(trifluoromethyl)-2,3-dihydro-furo[2,3-b]pyridin-3-yl)-1H-pyrazolo[4,3-c]quinoline-8-carboxamide]: the IC50 turned out to be 38 nM in assay [1] and 2150 nM in assay [2].
For `CCN(C(=O)c1ccc2nc(N)c3cnn(C)c3c2c1)C1COc2cc(C(F)(F)F)ccc21` (racemic) [Example 228, 4-amino-N-ethyl-1-methyl-N-((3R)-6-(trifluoromethyl)-2,3-dihydro-1-benzofuran-3-yl)-1H-pyrazolo[4,3-c]quinoline-8-carboxamide and 4-amino-N-ethyl-1-methyl-N-((3S)-6-(trifluoromethyl)-2,3-dihydro-1-benzofuran-3-yl)-1H-pyrazolo[4,3-c]quinoline-8-carboxamide], in that order: 7 nM and 683 nM.
For `CN(C(=O)c1ccc2nc(N)c3cnn(C)c3c2c1)C1c2ccc(C(F)(F)F)nc2CC1(F)F` (racemic) [Example 233, 4-amino-N-((5R)-6,6-difluoro-2-(trifluoromethyl)-6,7-dihydro-5H-cyclopenta[b]pyridin-5-yl)-N,1-dimethyl-1H-pyrazolo[4,3-c]quinoline-8-carboxamide and 4-amino-N-((5S)-6,6-difluoro-2-(trifluoromethyl)-6,7-dihydro-5H-cyclopenta[b]pyridin-5-yl)-N,1-dimethyl-1H-pyrazolo[4,3-c]quinoline-8-carboxamide] the same measures were 723 nM and 19000 nM.
Consider `CN(C(=O)c1cc2c(cc1F)nc(N)c1cnn(C)c12)C1COc2nc(C(F)(F)F)ccc21` (racemic) [Example 242, 4-amino-7-fluoro-N,1-dimethyl-N-((3R)-6-(trifluoromethyl)-2,3-dihydrofuro[2,3-b]pyridin-3-yl)-1H-pyrazolo[4,3-c]-quinoline-8-carboxamide and 4-amino-7-fluoro-N,1-dimethyl-N-((3S)-6-(trifluoromethyl)-2,3-dihydrofuro[2,3-b]pyridin-3-yl)-1H-pyrazolo[4,3-c]-quinoline-8-carboxamide], for which the IC50 was 5 nM in assay [1] and 533 nM in assay [2].

(Values after patent publication US20240124442A1, “TRICYCLIC-AMIDO-BICYCLIC PRMT5 INHIBITORS” (AMGEN INC., priority 2021, published 2024).)
